Measurements reported in patent US4501733A, “Polypeptides, a process for their preparation, their use, and a _process for the purification of polypeptides” (Ferring Arzneimittel GmbH, priority 1982, dated 1985).
Square brackets hold non-standard residues; d marks the D form. Peptide text beside a SMILES is read from it. * marks the point of attachment. Propionyl = CCC(=O)*

Columns and labels:
[1] = tested on: ileum from guinea pigs; assay: Inhibition of SP- or Nle-SP-induced contraction of isolated guinea pig ileum (organ bath, isotonic measurement); conditions: for relative antagonistic potency (comparison of the antagonists): agonist 10^-8 M; for relative antagonistic potency (comparison of the antagonists) / Percentage inhibiting action: antagonist 10^-5 M; for Percentage inhibiting action: agonist SP or Nle-SP 10^-8 M, guinea pig ileum contraction; for substance P-antagonizing action: antagonist used in a concentration of 10^-5 M, agonist SP or Nle-SP
Excerpt: The ileum from guinea pigs was cut out after the animals had been sacrificed, was substantially freed from mesenteria by pulling at the caudal end and was freed from digestion products with Tyrode's solution. About 25 cm were discarded from the caudal end, and several sections of intestine 4 cm long were then removed and stored in Tyrode's solution. The Tyrode's solution was gassed with carbogen (95% of O2 and 5% of CO2). The Tyrode's solution contained the following substances per liter: 8 g of NaCl; […]; 1.3 g of CaCl2.2H2 O; 2.1 g of MgCl2.6H2 O; […]; 0.58 g of NaH2 PO4.1H2 O; and 11 g of D(+)-glucose.
The Tyrode's solution was thermostatically controlled at 38° C. in an organ bath. Each preparation retained its complete contractility for 4 to 7 hours. 4 cm sections of intestine were tied on both sides and suspended in the organ bath. The contractions of the preparation were recorded under isotonic measurement conditions via a lever on a Kymograph drum. The writing was done by a felt-tip pen arranged as a lateral pen. The load arm was 225 mm and the power arm 20 mm long. The pre-load was about 0.3 g and the paper speed was 5 mm/minute. The organ bath contained 10 ml.
As a rule, the test substances were added in volumes of 2 to 100 μl, and were distributed instantaneously in the organ bath by the gassing. All the test substances added were dissolved in Tyrode's solution or diluted with Tyrode's solution from a stock solution.
Test substances: substance P (Serva) or norleucine-SP (Ferring, Kiel) were used as agonists, in doses of between 10^-9 and 10^-7 M. The following compounds were tested as potential antagonists:
In the standard test, SP or Nle-SP was applied in a concentration of between 10^-9 and 10^-7 M, and was washed out after about 2 minutes. After a latency period of a further 3 minutes, the potential antagonist was applied in a concentration of 3×10^-6, 10^-5 or 3.3×10^-5 M, directly followed by a further dose of SP (Nle-SP). After renewed washing out and a waiting time of 3 minutes, SP (Nle-SP) was again applied in the same dose, in order to investigate whether the original contraction strength is reached.
The reduction in the relative contraction of the ileum preparations as a result of using SP analogs was regarded as a measure of the relative activity as antagonists.

[2] = tested on: ileum in guinea pigs; conditions: Folkers et al. 1981; Rosell et al. 1981; cited from earlier work
[3] = tested on: SP-induced salivation; conditions: Folkers et al. 1981; Rosell et al. 1981; cited from earlier work
[4] = tested on: vasodilation; conditions: Folkers et al. 1981; Rosell et al. 1981; cited from earlier work

Molecule	relative antagonistic potency (comparison of the antagonists) [1]	Percentage inhibiting action [1]	substance P-antagonizing action [1]	inhibition of the contraction of the ileum in guinea pigs caused by SP [2]	inhibition of SP-induced salivation [3]	inhibition of vasodilation caused by antidromic nerve stimulation and SP-induced vasodilation [4]
CCC(=O)N[C@@H](CCC(N)=O)C(=O)N[C@H](Cc1c[nH]c2ccccc12)C(=O)N[C@@H](Cc1ccccc1)C(=O)N[C@H](Cc1c[nH]c2ccccc12)C(=O)N[C@@H](CC(C)C)C(=O)N[C@@H](CCSC)C(N)=O [compound 4, Propionyl-Gln-D-Trp-Phe-D-Trp-Leu-Met-NH2] (Propionyl-Q[dW]F[dW]LM-NH2)	lower but significant inhibiting action	29.3 ± 9.5%	substance P-antagonizing action			
D-Pro^2, D-Phe^7 and D-Trp-^9 -SP				inhibit	inhibit	inhibit
CSCC[C@H](NC(=O)[C@H](CC(C)C)NC(=O)[C@@H](Cc1c[nH]c2ccccc12)NC(=O)[C@H](Cc1ccccc1)NC(=O)[C@@H](Cc1c[nH]c2ccccc12)NC(=O)[C@H](CCC(N)=O)NC(=O)[C@@H]1CCCN1)C(N)=O [compound 3, H-Pro-Gln-D-Trp-Phe-D-Trp-Leu-Met-NH2] (H-PQ[dW]F[dW]LM-NH2)	most powerful action	69.5 ± 0.5%	substance P-antagonizing action			
CSCC[C@H](NC(=O)[C@H](CC(C)C)NC(=O)[C@@H](Cc1c[nH]c2ccccc12)NC(=O)[C@H](Cc1ccccc1)NC(=O)[C@@H](Cc1c[nH]c2ccccc12)NC(=O)[C@H](CCC(N)=O)NC(=O)[C@@H](N)CCCNC(=N)N)C(N)=O [compound 2, H-Arg-Gln-D-Trp-Phe-D-Trp-Leu-Met-NH2] (H-RQ[dW]F[dW]LM-NH2)	most powerful action	68.1 ± 8%	substance P-antagonizing action			
